Laboratory results taken from patent US20200397860A1, “SLIT AND BONE GROWTH MODULATION” (Cornell University, priority 2018, published 2020).

Key:
[1] = tested on: bone marrow endothelial progenitor outgrowth cells (EPOCs); experiment: Matrigel tube formation assay; format: cell-based, mouse; settings: EPOCs transduced with YAP shRNA
Procedure: Mouse bone marrow derived late-stage endothelial progenitor outgrowth cells (EPOCs) were obtained from BioChain (7030031) and cultured in growth medium (BioChain Z7030035) as described previously (Xie et al. 2014). Endothelial cell migration assay was set up in Trans well-24 well plates with 8-um pore filters. Briefly, 1×10^5 cells/well after 1-hour serum starvation were seeded in the upper chamber, then incubated with conditioned medium from osteoblasts and control in the lower chambers for a further 3 h. The cells in the upper surface of each filter were removed with cotton swabs. The cells that migrated into the lower surface were fixed with 4% PFA for 30 min and then stained with crystal violet. The cell numbers were quantified by counting a centered microscope field per each filter (5 wells for each condition). Endothelial cell wound healing assays were conducted in 12-well plates precoated with gelatin (Stemcell Technologies). 3×10^5 cells/well were plated overnight and stimulated with a wound in the form of a single linear scratch made with a yellow pipette tip. After gently washing the well twice, cells were cultured in medium with SLIT3 or vehicle. At 6 and 12 hours after injury, cells were stained by 0.5% crystal violet and photographed. The width of the wound area was quantitatively evaluated using ImageJ (see website at rsb.info.uih.gov/ij/download.html). Endothelial cell proliferation assays were conducted in 96-well plates pre-coated with gelatin (Stemcell Technologies). EPOCs (3×10^4 cells/well) were seeded in the medium with a serial dilution of SLIT3 protein or vehicle in plates. At 0, 24, 48 hours after seeding, cells were incubated with 10-fold diluted Alamar Blue solution (Thermo Fisher) and the supernatant was evaluated with a spectrophotometer (Thermo) (5 wells for each condition). Endothelial cell tube formation assay was conducted in 96-well plates pre-coated with Matrigel (BD). After 1 h serum starvation, EPOCs (3×10^4 cells/well) were seeded in conditioned medium dilution or control medium on polymerized Matrigel in plates. Alter 5 hours incubation at 37° C., the number of tube branches each well was observed and quantified by counting four random fields per well with microscopy (5 wells for each condition).

[2] = tested on: murine ovariectomy (OVX) model of postmenopausal osteoporosis; experiment: Ovariectomy (OVX) induced bone loss, prophylactic model; format: in vivo, mouse; settings: L3 vertebrae
Procedure: Micro-CT (μCT) analysis was conducted on a Scanco Medical μCT 35 system at the Citigroup Biomedical Imaging Core using the previously described parameters. (Shim et al. 2013). μCT analysis was performed by an investigator blinded to the genotypes of the animals under analysis.
For histomorphometry, mice were injected with calcein (25 mg/kg, Sigma), and undecalcified sections of the lumbar vertebrae were stained using von Kossa and TRAP as described by Fukuda et al. (2013). Static and dynamic histomorphometric analysis was performed with using the Osteomeasure Analysis System (Osteometrics) following standard nomenclature as described (Dempster et al. 2013). Bone volume/total volume (BV/TV), bone formation rate/bone surface (BFR/BS, μm^3 […] yr^−1), mineral apposition rate (MM, um Day^−1), osteoblast surface/bone surface (Ob.S/BS, %) and osteoclast number/bone perimeter (No. OC/Bpm) were analyzed.
For the prophylactic model, 12-week-old female mice (JAX) were anesthetized and bilaterally ovariectomized or sham operated. Ovariectomized mice were given twice weekly intravenous injections of 1 mg per kg body weight of SLITS or vehicle or daily subcutaneous (sc) injections of 80 ug/kg PTH (1-34) for 6 weeks starting 2 weeks after ovariectomy. […] All mice were then randomly assigned to one of four groups: Sham, OVX+vehicle, OVX+SLITS and OVX+PTH. Three days after the last injection, all of the mice were euthanized and subjected to bone analysis as described earlier.

[3] = tested on: CD31^hiEMCN^hi endothelium; experiment: Flow cytometry of skeletal CD31hiEMCNhi endothelium in femurs after IV injection; format: in vivo, mouse; settings: 8-week-old B6 mice, twice weekly IV 1 mg/kg, 21 days, femur
Procedure: Femur and tibia were dissected from mutant mice and control groups after removing surrounding connective tissues. The metaphysis region and diaphysis regions of bone was crushed in Hanks Balanced Salt Solution (Life Technologies) containing 10 mM HOPES (pH 7.2) (CellGro) and enzymatically digested with 2.5 mg/mL Collagenase A (Roche) and 1 unit/mL Dispase II (Roche) for 15 minutes at 37° C. under gentle agitation. The resulting cell suspensions were filtered (40 μm), washed using PBS (pH 7.2) containing 0.5% BSA (Fraction V) and 2 mM EDTA. After washing, equal numbers of cells per mouse were blocked with Purified Rat Anti-Mouse CD16/CD32 (BD Biosciences) for 30 min on ice, then stained with APC-conjugated EMCN antibody (ebioscience 50-5851-80), PE-conjugated CD31 (ebioscience 12-0311-81). FITC-conjugated CD45 (Tonbo 35-0451), APC/Cy7-conjugated Ter119 (Biolegend 116223) and PerCP-Cy5.5-conjugated CD146 (BD Biosciences 562231) for 45 min on ice. After washing, cells were resuspended in PBS (pH 7.2) with 2 mM EDTA and 1 μg/mL 4-6,Diamidino-2-Phenylindole (DAPI) (live/dead exclusion) for analysis on an LSRII flow cytometer system (BD Biosciences) cytometer and analyzed using FlowJo software (TreeStar). Cell sorting was performed with a FACS Aria II SORP cell sorter (Becton Dickinson) at Weill Cornell Medical College, with exclusion of DAPI^+ cells and doublets. […]

FGF2: FGF2, positive control inducer of tube formation [reference compound]
ability to induce tube formation after shRNA-mediated knockdown of YAP [1]: not

PTH: parathyroid hormone PTH (1-34), daily subcutaneous injections, comparator in OVX model (SVSEIQLMHNLGKHLNSMERVEWLRKKLQDVHNF; Parathyroid hormone; UniProt P01270 32-65, looked up, fragment) [reference compound]
endosteal CD31hiEMCNhi endothelium after OVX [2]: reversed the attenuation | endosteal bone formation [2]: rescued

SLIT2: recombinant SLIT2 protein, SLIT family ligand
levels of skeletal CD31hiEMCNhi endothelium in vivo [3]: increased formation
